The values that follow come from patent US8653096B2, “Chemokine receptor antagonists and methods of use thereof” (Millennium Pharmaceuticals, Inc., priority 2001, dated 2014).

One test addresses T1, RANTES/MIP-1α chemokine receptor (CCR1) in THP-1 cell membranes (Homo sapiens, UniProt P32246).
T1 construct: Membranes were prepared from THP-1 cells (ATCC #TIB202); host or cells: THP-1 cells (membrane preparation)
T1 sequence (P32246 1-355): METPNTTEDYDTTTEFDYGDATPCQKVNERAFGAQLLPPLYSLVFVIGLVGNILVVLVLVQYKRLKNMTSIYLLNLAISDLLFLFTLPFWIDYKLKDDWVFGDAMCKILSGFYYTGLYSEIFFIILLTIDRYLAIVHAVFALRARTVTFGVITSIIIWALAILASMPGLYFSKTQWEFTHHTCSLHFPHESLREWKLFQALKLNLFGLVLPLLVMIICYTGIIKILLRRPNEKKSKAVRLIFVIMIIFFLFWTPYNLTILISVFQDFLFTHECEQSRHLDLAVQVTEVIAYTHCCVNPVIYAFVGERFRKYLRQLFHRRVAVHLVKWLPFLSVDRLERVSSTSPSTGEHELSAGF
Put plainly: Receptor binding assay: 125I-RANTES or 125I-MIP-1α binding to THP-1 cell membranes.
Settings: not given
One may read the IC50 as the concentration needed to halve the response being measured. In turn, `CC(C)(O)c1ccc2c(c1)C(=CCCN1CCC(Nc3ccc(Cl)cc3)(C(N)=O)CC1)c1cccnc1CO2` [Example 466, 4-(4-Chloro-phenylamino)-1-{3-[7-(1-hydroxy-1-methyl-ethyl)-11H-10-oxa-1-aza-dibenzo[a,d]cyclohepten-5-ylidene]-propyl}-piperidine-4-carboxylic acid amide] displayed an IC50 of less than 50 µM.

Staying with this test, now noted: inhibitor concentration required for 50% inhibition of specific binding; 125I-RANTES or 125I-MIP-1α as ligand, THP-1 cell membranes; read-out: IC50.
As for `CC(C)(C)CC(C)(C)NC(=O)N(Cc1ccc(Cl)cc1)C1CCN(CCC=C2c3cc(C(C)(C)O)ccc3OCc3ncccc32)C1` (stereo not shown) [Example 570, 1-(4-Chloro-benzyl)-1-(1-{3-[7-(1-hydroxy-1-methyl-ethyl)-11H-10-oxa-1-aza-dibenzo[a,d]cyclohepten-5-ylidene]-propyl}-pyrrolidin-3-yl)-3-(1,1,3,3-tetramethyl-butyl)-urea], the concentration for half-maximal inhibition (IC50) was less than 10 µM.

For the molecule `CC(C)(O)c1ccc2c(c1)C(=CCCN1CCN(c3ccc(Cl)c(Cl)c3)CC1)c1cccnc1CO2` [Example 538, 2-(5-{3-[4-(3,4-Dichloro-phenyl)-piperazin-1-yl]-propylidene}-5,11-dihydro-10-oxa-1-aza-dibenzo[a,d]cyclohepten-7-yl)-propan-2-ol], the 50% inhibitory concentration (IC50) is less than 10 µM.

In the case of `CC(C)(O)c1ccc2c(c1)C(=CCCN1CCC(N(Cc3ccc(Cl)cc3)C(=O)C3CCCCC3)C1)c1cccnc1CO2` (stereo not shown) [Example 565, Cyclohexanecarboxylic acid (4-chloro-benzyl)-(1-{3-[7-(1-hydroxy-1-methyl-ethyl)-11H-10-oxa-1-aza-dibenzo[a,d]cyclohepten-5-ylidene]-propyl}-pyrrolidin-3-yl)-amide], the IC50 was less than 10 µM.

In the case of `CC(C)(O)c1ccc2c(c1)C(=CCCN1CCC(N=[N+]=[N-])(c3ccc(Cl)cc3)C(O)C1)c1cccnc1CO2` (stereo not shown) [Example 477, 4-Azido-4-(4-chloro-phenyl)-1-{3-[7-(1-hydroxy-1-methyl-ethyl)-11H-10-oxa-1-aza-dibenzo[a,d]cyclohepten-5-ylidene]-propyl}-piperidin-3-ol], the concentration for half-maximal inhibition (IC50) is less than 10 µM.

With `CCN1C(=O)CN([C@@H]2CCN(CCC=C3c4cc(C(C)(C)O)ccc4OCc4ncccc43)C2)Cc2ccc(Cl)cc21` [Example 535, (R)-8-Chloro-1-ethyl-4-(1-{3[7-(-hydroxy-1-methyl-ethyl)-11H-10-oxa-1-aza-dibenzo[a,d]cyclohepten-5-ylidene]-propyl}-pyrrolidine-3-yl)-1,3,4,5-tetrahydro-benzo[e][1,4]diazepin-2-one], the IC50 is less than 10 µM.

Regarding `CC(C)(O)c1ccc2c(c1)C(=CCCN1CCC(N(CC(N)=O)Cc3ccc(Cl)cc3)C1)c1cccnc1CO2` (stereo not shown) [Example 552, 2-[(4-Chloro-benzyl)-(1-{3-[7-(1-hydroxy-1-methyl-ethyl)-11H-10-oxa-1-azadibenzo[a,d]cyclohepten-5-ylidene]-propyl}-pyrrolidin-3-yl)-amino]-acetamide], the IC50 was less than 1 µM.

As for `CC(C)(CO)Oc1ccc2c(c1)C(=CCCN1CCC(O)(c3ccc(Cl)cc3)CC1)c1cccnc1CO2` [Example 199, 4-(4-Chlorophenyl)-1-[3-(7-(2-(1-hydroxy-2-methyl)propyl)oxy-5,11-dihydro[1]benzoxepino[2,3-b]pyridin-5-ylidene)propyl]piperidin-4-ol], the IC50 was less than 1 µM.

Turning to “5-Chloro-1′-[3-(5,11-dihydro-7-(2-methoxyethyl)oxy[1]benzoxepino[2,3-b]pyridin-5-ylidene)propyl]spiro[isobenzofuran-1(3H), 4′-piperidine] [Example 197]”, the IC50 is less than 1 µM.

“4-(4-Chlorophenyl)-1-[3-(5,11-dihydro-7-phenyl[1]benzoxepino[2,3-b]pyridin-5-ylidene)propyl]piperidin-4-ol [Example 291]”: the half-maximal inhibitory concentration (IC50) is less than 1 µM.

As for `CN(C)C(=O)c1ccc2c(c1)C(=CCCN1CCC(O)(c3ccc(Cl)cc3)CC1)c1ccccc1CO2` [Example 25, 4-(4-Chlorophenyl)-1-[3-(6,11-dihydro-2-dimethylaminocarbonyldibenz[b,e]oxepin-11-ylidene)propyl]piperidin-4-ol], the 50% inhibitory concentration (IC50) is less than 1 µM.

As to `Nc1ccc2c(c1)C(=CCCN1CCC(O)(c3ccc(Cl)cc3)CC1)c1ccccc1CO2` [Example 31, 1-[3-(2-Amino-6,11-dihydrodibenz[b,e]oxepin-11-ylidene)propyl]-4-(4-chlorophenyl)piperidin-4-ol], the IC50 was less than 1 µM.

On to `O=C(OCCN1CCOCC1)c1ccc2c(c1)C(=CCCN1CCC(O)(c3ccc(Cl)cc3)CC1)c1cccnc1CO2` [Example 430, 4-(4-Chlorophenyl)-1-[3-(5,11-dihydro-7-(2-morpholinoethyl-1-yl)-oxycarbonyl-[1]benzoxepino[2,3-b]pyridin-5-ylidene)propyl]piperidine-4-ol], for which the IC50 was less than 1 µM.

In the case of `CC(C)(O)c1ccc2c(c1)C(=CCCN1CCC(O)(c3ccc(Cl)c([N+](=O)[O-])c3)CC1)c1cccnc1CO2` [Example 492, 4-(4-Chloro-3-nitro-phenyl)-1-{3-[7-(1-hydroxy-1-methyl-ethyl)-11H-10-oxa-1-aza-dibenzo[a,d]cyclohepten-5-ylidene]-propyl}-piperidin-4-ol], the IC50 is less than 10 µM.

As to “4-(4-Chlorophenyl)-1-[3-(7-cyanomethyloxy-5,11-dihydro[1]benzoxepino[2,3-b]pyridin-5-ylidene)propyl]piperidin-4-ol [Example 49]”, the half-inhibitory concentration (IC50) is less than 1 µM.

For the molecule “1-[3-(5,11-Dihydro-7-methoxy[1]benzoxepino[2,3-b]pyridin-5-ylidene)propyl]-4-(4-pyridyl)piperidin-4-ol [Example 149]”, the concentration for half-maximal inhibition (IC50) was less than 1000 µM.

Consider `CC1(C)CN(CCC=C2c3cc(OCC(=O)O)ccc3OCc3ncccc32)CCC1(O)c1ccc(Cl)cc1` (stereo not shown) [Example 515, (5-{3-[4-(4-Chloro-phenyl)-4-hydroxy-3,3-dimethyl-piperidin-1-yl]-propylidene}-5,11-dihydro-10-oxa-1-aza-dibenzo[a,d]cyclohepten-7-yloxy)-acetic acid], for which the 50% inhibitory concentration (IC50) is less than 1 µM.

Consider `COC1(c2ccc(Cl)cc2)CCN(CCC=C2c3cc(C(C)(C)O)ccc3OCc3ncccc32)CC1O` (stereo not shown) [Example 474, 4-(4-Chloro-phenyl)-1-{3-[7-(1-hydroxy-1-methyl-ethyl)-11H-10-oxa-1-aza-dibenzo[a,d]cyclohepten-5-ylidene]-propyl}-4-methoxy-piperidin-3-ol], for which the IC50 was less than 1 µM.

With `CCN(CC)CCOC(=O)c1ccc2c(c1)C(=CCCN1CCC(O)(c3ccc(Cl)cc3)CC1)c1cccnc1CO2` [Example 431, 4-(4-Chlorophenyl)-1-[3-(5,11-dihydro-7-(2,2-diethylaminoethyl-1-yl)-oxycarbonyl-[1]benzoxepino[2,3-b]pyridin-5-ylidene)propyl]piperidine-4-ol], the 50% inhibitory concentration (IC50) was less than 1 µM.

On to `COc1ccc2c(c1)C(=CCCN1CCC(O)(c3ccccc3)CC1)c1cccnc1CO2` [Example 59, 1-[3-(5,11-Dihydro-7-methoxy[1]benzoxepino[2,3-b]pyridin-5-ylidene)propyl]piperidin-4-phenyl-4-ol], for which the half-maximal inhibitory concentration (IC50) was less than 1 µM.

On to “4-(4-Chlorophenyl)-1-[3-(5,11-dihydro-7-hydroxy [1]benzoxepino[2,3-b]pyridin-5-ylidene)propyl]piperidin-4-ol [Example 44]”, for which the IC50 is less than 1 µM.

With `N#Cc1ccc2c(c1)C(=CCCN1CCC(O)(c3ccc(Cl)cc3)CC1)c1ccccc1CO2` [Example 28, 4-(4-Chlorophenyl)-1-[3-(2-cyano-6,11-dihydrodibenz[b,e]oxepin-11-ylidene)propyl]piperidin-4-ol], the IC50 was less than 1 µM.

With “1-[3-(7-Carbamoylmethyl-5,11-dihydro[1]benzoxepino[2,3-b]pyridin-5-ylidene)propyl]-4-(4-chlorophenyl)-piperidin-4-ol [Example 281]”, the IC50 was less than 1 µM.

Consider `O=C(O)C1(Oc2ccc3c(c2)C(=CCCN2CCC(O)(c4ccc(Cl)cc4)CC2)c2cccnc2CO3)CCC1` [Example 180, 1-[3-(7-(1-Carboxy)cyclbutoxy-5,11-dihydro[1]benzoxepino[2,3-b]pyridin-5-ylidene)propyl]-4-(4-chlorophenyl)piperidin-4-ol], for which the concentration for half-maximal inhibition (IC50) is less than 1 µM.

`CC(C)C(=O)N(Cc1ccc(Cl)cc1)C1CCN(CCC=C2c3cc(C(C)(C)O)ccc3OCc3ncccc32)C1` (stereo not shown) [Example 562, N-(4-Chloro-benzyl)-N-(1-{3-[7-(1-hydroxy-1-methyl-ethyl)-11H-10-oxa-1-aza-dibenzo[a,d]cyclohepten-5-ylidene]-propyl}-pyrrolidin-3-yl)-isobutyramide]: the 50% inhibitory concentration (IC50) was less than 10 µM.

For `CCOCC1(C)CN(CCC=C2c3cc(C(C)(C)O)ccc3OCc3ncccc32)CCC1(O)c1ccc(Cl)cc1` (stereo not shown) [Example 484, 4-(4-Chloro-phenyl)-3-ethoxymethyl-1-{3 [7-(-hydroxy-1-methyl-ethyl)-11H-10-oxa-1-aza-dibenzo[a,d]cyclohepten-5-ylidene]-propyl}-3-methyl-piperidin-4-ol], the IC50 was less than 1 µM.

For “1-[3-(7-Bromo-5,11-dihydro[1]benzoxepino[2,3-b]pyridin-5-ylidene)propyl]-4-(4-chlorophenyl)piperidin-4-ol [Example 162]”, the IC50 is less than 1 µM.

As to `CC(=O)c1ccc2c(c1)C(=CCCN1CC[C@](O)(c3ccc(Cl)cc3)C(C)(C)C1)c1cccnc1CO2` [Example 504, S-1-(5-{3-[4-(4-Chloro-phenyl)-4-hydroxy-3,3-dimethyl-piperidin-1-yl]-propylidene}-5,11-dihydro-10-oxa-1-aza-dibenzo[a,d]cyclohepten-7-yl)-ethanone], the half-inhibitory concentration (IC50) is less than 1 µM.
